# Data: patent publication US20110034434A1, “PRODRUGS OF FUSED HETEROCYCLIC INHIBITORS OF D-AMINO ACID OXIDASE” (SEPRACOR INC., priority 2009, published 2011)
# System: not listed separately
# Assay: Hydrolysis rate of test compounds in pH 7.4 and 2.0 aqueous solution
# Assay type: physicochemical
# Conditions: 0.05 M sodium phosphate buffer pH 7.4, over 6 hours, HPLC
# Method: 10 mM DMSO solutions of test compounds were diluted with a 0.05 M sodium phosphate buffer (pH 7.4) or water adjusted with phosphoric acid to pH 2.0, with a final concentration of 0.013 mg/mL. Samples were analyzed over either 2 or 6 hours, by HPLC.
# The amount of test compound and the corresponding acid were determined. The rate of conversion of the test compound was calculated based on formation of the corresponding acid and loss of parent.
# The rate of hydrolysis of test compounds to 4H-furo[3,2-b]pyrrole-5-carboxylic acid was evaluated in pH 7.4 aqueous solution over 6 hours, and in pH 2.0 aqueous solution over 2 hours, according to General Procedure 14.
row,Hydrolysis rate at pH 7.4,SMILES
1,No hydrolysis,"O=C(OCC1CCCO1)c1cc2occc2[nH]1 (centres unmarked) [compound 10, (tetrahydrofuran-2-yl)methyl 4H-furo[3,2-b]pyrrole-5-carboxylate]"
2,No hydrolysis,"O=C(OCC(=O)N1CCC1)c1cc2occc2[nH]1 [compound 19, 2-(azetidin-1-yl)-2-oxoethyl 4H-furo[3,2-b]pyrrole-5-carboxylate]"

# Same assay, conditions: water adjusted with phosphoric acid to pH 2.0, over 2 hours, HPLC
row,Hydrolysis rate at pH 2.0,SMILES
1,No hydrolysis,"O=C(OCC1CCCO1)c1cc2occc2[nH]1 (centres unmarked) [compound 10, (tetrahydrofuran-2-yl)methyl 4H-furo[3,2-b]pyrrole-5-carboxylate]"
2,No hydrolysis,"O=C(OCC(=O)N1CCC1)c1cc2occc2[nH]1 [compound 19, 2-(azetidin-1-yl)-2-oxoethyl 4H-furo[3,2-b]pyrrole-5-carboxylate]"

# System: D-serine
# Assay: PK-PD evaluation in rats: D-serine levels in cerebellum after oral dosing
# Assay type: in vivo
# Conditions: rat cerebellum, 6 hours after PO dosing, dose normalized to 10 mg/kg of the acid; mean ± spread (n)
# Method: Rats (Harlan male Sprague) (N=3) were dosed orally with an amount of test compound, suspended in 45% (w/v) hydroxy-β-cyclodextrin vehicle, dose normalized to 10 mg/kg of the corresponding carboxylic acid. Additional male cannulated rats (N=3) were dosed orally with the parent carboxylic acid, suspended in 45% (w/v) hydroxy-β-cyclodextrin vehicle, at 10 mg/kg. Animals were sacrificed at pre-determined time points (e.g., 0.5, 2 and/or 6 hours post administration) with an N=3 at each time point. At sacrifice, trunk blood was collected into tubes containing potassium EDTA, which were then centrifuged to permit isolation of plasma. The cerebellum was dissected from each animal. Plasma and cerebellum samples were stored at −80° C. until samples were analyzed using a SCIEX API2000 or SCIEX API5000 LC/MS/MS. Samples were analyzed for the amount of corresponding parent acid, D-serine, and/or the amount of test compound.
# Conversion of test compounds to 4H-furo[3,2-b]pyrrole-5-carboxylic acid (“acid”; 77) in rats was evaluated according to General Procedure 12. 4H-furo[3,2-b]pyrrole-5-carboxylic acid and D-serine levels in plasma and cerebellum were measured. Animals were sacrificed at 6 hours post administration. In Table 6, “[D-serine] cerebellum” refers to D-serine levels, in nmol/g, in the rat cerebellum. In Table 6, “[acid] cerebellum” refers to the concentration, in μM, of the 4H-furo[3,2-b]pyrrole-5-carboxylic acid in the cerebellum. In Table 6, “[acid] plasma” refers to the concentration, in μM, of the 4H-furo[3,2-b]pyrrole-5-carboxylic acid in the plasma. The row labeled “acid”, denotes the data obtained from dosing 4H-furo[3,2-b]pyrrole-5-carboxylic acid. The row labeled “vehicle” denotes the data obtained from dosing vehicle, and the remaining row in the table denote the data obtained from dosing the test compounds.
row,SMILES,[D-serine] cerebellum
1,"CCOC(=O)c1cc2occc2n1COCCOC(=O)C(N)C(C)C (stereo in doubt) [compound 68, (S)-ethyl 4-((2-(2-amino-3-methylbutanoyloxy)ethoxy)methyl)-4H-furo[3,2-b]pyrrole-5-carboxylate]",5 ± 0.4(3) nmol/g
2,"CC1(C)OC(=O)c2cc3occc3n21 [compound 2, 11,11-dimethyl-5,10-dioxa-1-azatricyclo[6.3.0.0^2,6]undeca-2(6),3,7-trien-9-one]",17 ± 1.0(3) nmol/g
3,"CC1OC(=O)c2cc3occc3n21 (centres unmarked) [compound 3, 11-methyl-5,10-dioxa-1-azatricyclo[6.3.0.0^2,6]undeca-2(6),3,7-trien-9-one]",17 ± 1.0(3) nmol/g
4,"CCCOC(=O)c1cc2occc2[nH]1 [compound 4, propyl 4H-furo[3,2-b]pyrrole-5-carboxylate]",20 ± 1.3(3) nmol/g
5,"CCCCOC(=O)c1cc2occc2[nH]1 [compound 5, butyl 4H-furo[3,2-b]pyrrole-5-carboxylate]",18 ± 1.2(3) nmol/g
6,"CCCCCCCOC(=O)c1cc2occc2[nH]1 [compound 6, heptyl 4H-furo[3,2-b]pyrrole-5-carboxylate]",18 ± 0.7(3) nmol/g
7,"CC(C)COC(=O)c1cc2occc2[nH]1 [compound 7, isobutyl 4H-furo[3,2-b]pyrrole-5-carboxylate]",19 ± 1.5(3) nmol/g
8,"CC(C)CCCOC(=O)c1cc2occc2[nH]1 [compound 8, 4-methylpentyl 4H-furo[3,2-b]pyrrole-5-carboxylate]",20 ± 1.5(3) nmol/g
9,"O=C(OCc1ccccc1)c1cc2occc2[nH]1 [compound 9, benzyl 4H-furo[3,2-b]pyrrole-5-carboxylate]",21 ± 0.4(3) nmol/g
10,"O=C(OCC1CCCO1)c1cc2occc2[nH]1 (centres unmarked) [compound 10, (tetrahydrofuran-2-yl)methyl 4H-furo[3,2-b]pyrrole-5-carboxylate]",19 ± 2.0(6) nmol/g
11,"O=C(OCC(=O)N1CCC1)c1cc2occc2[nH]1 [compound 19, 2-(azetidin-1-yl)-2-oxoethyl 4H-furo[3,2-b]pyrrole-5-carboxylate]",17 ± 0.7(3) nmol/g
12,"CCN(CC)C(=O)COC(=O)c1cc2occc2[nH]1 [compound 23, 2-(diethylamino)-2-oxoethyl 4H-furo[3,2-b]pyrrole-5-carboxylate]",18 ± 2.3(3) nmol/g
13,"O=C(OCCn1ccnc1)c1cc2occc2[nH]1 [compound 27, 2-(1H-imidazol-1-yl)ethyl 4H-furo[3,2-b]pyrrole-5-carboxylate]",17 ± 0.6(3) nmol/g
14,"O=C(OCn1ccnc1)c1cc2occc2[nH]1 [compound 28, (1H-imidazol-1-yl)methyl 4H-furo[3,2-b]pyrrole-5-carboxylate]",19 ± 1.9(3) nmol/g
15,"CN(C)CCOC(=O)c1cc2occc2[nH]1 [compound 32, 2-(dimethylamino)ethyl 4H-furo[3,2-b]pyrrole-5-carboxylate]",9 ± 0.7(3) nmol/g
16,"CC(=O)OC(C)OC(=O)c1cc2occc2[nH]1 (centres unmarked) [compound 33, 1-acetoxyethyl 4H-furo[3,2-b]pyrrole-5-carboxylate]",19 ± 1.4(3) nmol/g
17,"CCC(=O)OC(C)OC(=O)c1cc2occc2[nH]1 (centres unmarked) [compound 34, 1-(propionyloxy)ethyl 4H-furo[3,2-b]pyrrole-5-carboxylate]",20 ± 1.7(3) nmol/g
18,"CC(C)OC(=O)OC(C)OC(=O)c1cc2occc2[nH]1 (centres unmarked) [compound 36, 1-(isopropoxycarbonyloxy)ethyl 4H-furo[3,2-b]pyrrole-5-carboxylate]",20 ± 2.9(6) nmol/g
19,"CC(OC(=O)OC(C)(C)C)OC(=O)c1cc2occc2[nH]1 (centres unmarked) [compound 37, 1-(tert-butoxycarbonyloxy)ethyl 4H-furo[3,2-b]pyrrole-5-carboxylate]",18 ± 1.1(3) nmol/g
20,"CC(=O)OCOC(=O)c1cc2occc2[nH]1 [compound 38, acetoxymethyl 4H-furo[3,2-b]pyrrole-5-carboxylate]",19 ± 4.4(4) nmol/g

row,SMILES,[D-serine] cerebellum
1,"CC(=O)OC(OC(=O)c1cc2occc2[nH]1)C(C)C (centres unmarked) [compound 40, 1-acetoxy-2-methylpropyl 4H-furo[3,2-b]pyrrole-5-carboxylate]",22 ± 2.7(3) nmol/g
2,"O=C(OCOC(=O)c1cc2occc2[nH]1)c1cc2occc2[nH]1 [compound 41, methylene bis(4H-furo[3,2-b]pyrrole-5-carboxylate)]",14 ± 0.2(3) nmol/g
3,"CCC(=O)OCOC(=O)c1cc2occc2[nH]1 [compound 42, propionyloxymethyl 4H-furo[3,2-b]pyrrole-5-carboxylate]",20 ± 1.5(3) nmol/g
4,"CCCC(=O)OC(C)OC(=O)c1cc2occc2[nH]1 (centres unmarked) [compound 44, 1-(butyryloxy)ethyl 4H-furo[3,2-b]pyrrole-5-carboxylate]",21 ± 1.3(3) nmol/g
5,"CCC(OC(C)=O)OC(=O)c1cc2occc2[nH]1 (centres unmarked) [compound 45, 1-acetoxypropyl 4H-furo[3,2-b]pyrrole-5-carboxylate]",22 ± 1.9(3) nmol/g
6,"CC(C)C(=O)OCOC(=O)c1cc2occc2[nH]1 [compound 47, isobutyryloxymethyl 4H-furo[3,2-b]pyrrole-5-carboxylate]",22 ± 3.0(3) nmol/g
7,"O=C(OCCOC(=O)c1cc2occc2[nH]1)c1cc2occc2[nH]1 [compound 55, ethane-1,2-diyl bis(4H-furo[3,2-b]pyrrole-5-carboxylate)]",13 ± 1.1(3) nmol/g
8,"NC(=O)c1cc2occc2[nH]1 [compound 56, 4H-furo[3,2-b]pyrrole-5-carboxamide]",7 ± 0.7(2) nmol/g
9,"NC(=O)CNC(=O)c1cc2occc2[nH]1 [compound 57, N-(2-amino-2-oxoethyl)-4H-furo[3,2-b]pyrrole-5-carboxamide]",5 ± 0.5(3) nmol/g
10,"CN1CCN(C(=O)c2cc3occc3[nH]2)CC1 [compound 58, (4H-furo[3,2-b]pyrrol-5-yl)(4-methylpiperazin-1-yl)methanone]",5 ± 0.3(3) nmol/g
11,"CCOC(=O)c1cc2occc2n1COC(=O)c1ccccc1 [compound 59, ethyl 4-(benzoyloxymethyl)-4H-furo[3,2-b]pyrrole-5-carboxylate]",11 ± 1.9(3) nmol/g
12,"O=C(OCn1c(C(=O)O)cc2occc21)c1ccccc1 [compound 60, 4-(benzoyloxymethyl)-4H-furo[3,2-b]pyrrole-5-carboxylic acid]",13 ± 1.1(3) nmol/g
13,"CCOC(=O)c1cc2occc2n1COC(C)=O [compound 64, ethyl 4-(acetoxymethyl)-4H-furo[3,2-b]pyrrole-5-carboxylate]",14 ± 3.6(3) nmol/g
14,"CCOC(=O)c1cc2occc2n1COC(=O)C(C)C [compound 65, ethyl 4-(isobutyryloxymethyl)-4H-furo[3,2-b]pyrrole-5-carboxylate]",11 ± 2.6(3) nmol/g
15,"CC(=O)OCn1c(C(=O)O)cc2occc21 [compound 66, 4-(acetoxymethyl)-4H-furo[3,2-b]pyrrole-5-carboxylic acid]",12 ± 0.7(3) nmol/g
16,"CC(C)C(=O)OCn1c(C(=O)O)cc2occc21 [compound 67, 4-(isobutyryloxymethyl)-4H-furo[3,2-b]pyrrole-5-carboxylic acid]",14 ± 0.9(3) nmol/g
17,"CC(=O)OCOC(=O)c1cc2occc2n1COC(C)=O [compound 71, acetoxymethyl 4-(acetoxymethyl)-4H-furo[3,2-b]pyrrole-5-carboxylate]",14 ± 0.9(3) nmol/g
18,"O=C1OCC(OC(=O)c2cc3occc3[nH]2)O1 (centres unmarked) [compound 73, 2-oxo-1,3-dioxolan-4-yl 4H-furo[3,2-b]pyrrole-5-carboxylate]",24 ± 2.0(2) nmol/g
19,"O=C(OC1OC(=O)c2ccccc21)c1cc2occc2[nH]1 (centres unmarked) [compound 74, 3-oxo-1,3-dihydroisobenzofuran-1-yl 4H-furo[3,2-b]pyrrole-5-carboxylate]",13 ± 1.2(3) nmol/g
20,"O=C(OCCl)c1cc2occc2[nH]1 [compound 76, chloromethyl 4H-furo[3,2-b]pyrrole-5-carboxylate]",12 ± 1.5(3) nmol/g
